Source: PMC5838219 (2018)

Assays:
[1] = tested on: dGsw^121,caged (RNA, riboswitch, (S)-NPE photocage at C4 position of nucleobases of U108, U110 and U112) AAUGAAUAUAAAAGAAACUUAUACAGGGUAGCAUAAUGGGCUACUGACCCCGCCUUCAAACCUAUUUGGAGACUAUAAGUGAAAAACCACUCUUUAAUUAUUAAAGUUUCUUUUUAUGUC; experiment: NMR (1H,15N-TROSY, imino protons); settings: 50 mM KCl, 25 mM K phosphate, 6 eq. Mg2+; pH 6.2, 298 K; 100 µM RNA, 2 eq. ligand; before photolysis
[2] = tested on: dGsw^121 (RNA, riboswitch) AAUGAAUAUAAAAGAAACUUAUACAGGGUAGCAUAAUGGGCUACUGACCCCGCCUUCAAACCUAUUUGGAGACUAUAAGUGAAAAACCACUCUUUAAUUAUUAAAGUUUCUUUUUAUGUC; experiment: NMR (1H,15N-TROSY, imino protons); settings: 50 mM KCl, 25 mM K phosphate, 6 eq. Mg2+; pH 6.2, 298 K; 100 µM RNA, 2 eq. ligand; after photolysis; antiterminator folds only to ~80%

- binding [1]: yes
- binding [2]: yes
SMILES: Nc1nc2c(ncn2[C@H]2C[C@H](O)[C@@H](CO)O2)c(=O)[nH]1
